Read-outs that look alike come from different tables or passages of the source.
Experiments:
[1] = target: T1, panel of 255 wild-type kinases (Homo sapiens, UniProt O14757); details: cited from earlier work
T1 sequence (O14757 1-476): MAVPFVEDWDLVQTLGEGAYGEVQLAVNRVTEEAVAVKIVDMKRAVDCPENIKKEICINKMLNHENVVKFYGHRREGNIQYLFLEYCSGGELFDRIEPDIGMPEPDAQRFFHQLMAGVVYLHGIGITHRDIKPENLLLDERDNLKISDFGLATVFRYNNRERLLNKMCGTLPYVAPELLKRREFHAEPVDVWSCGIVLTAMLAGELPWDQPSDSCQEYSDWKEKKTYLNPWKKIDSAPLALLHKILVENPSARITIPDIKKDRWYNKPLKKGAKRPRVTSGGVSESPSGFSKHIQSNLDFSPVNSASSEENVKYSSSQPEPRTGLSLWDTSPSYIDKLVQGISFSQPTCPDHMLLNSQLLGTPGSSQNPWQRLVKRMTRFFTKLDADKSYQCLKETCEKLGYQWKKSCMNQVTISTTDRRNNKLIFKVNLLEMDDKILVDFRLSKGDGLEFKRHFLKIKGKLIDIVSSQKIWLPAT

[2] = target: panel of 255 wild-type kinases (Homo sapiens, UniProt P00519); details: cited from earlier work
[3] = target: panel of 255 wild-type kinases (Homo sapiens, UniProt P68400); details: cited from earlier work
[4] = target: panel of 255 wild-type kinases (Homo sapiens, UniProt Q13555); details: cited from earlier work
[5] = target: T2, panel of 255 wild-type kinases (Homo sapiens, UniProt Q06418); details: cited from earlier work
T2 sequence (Q06418 41-890): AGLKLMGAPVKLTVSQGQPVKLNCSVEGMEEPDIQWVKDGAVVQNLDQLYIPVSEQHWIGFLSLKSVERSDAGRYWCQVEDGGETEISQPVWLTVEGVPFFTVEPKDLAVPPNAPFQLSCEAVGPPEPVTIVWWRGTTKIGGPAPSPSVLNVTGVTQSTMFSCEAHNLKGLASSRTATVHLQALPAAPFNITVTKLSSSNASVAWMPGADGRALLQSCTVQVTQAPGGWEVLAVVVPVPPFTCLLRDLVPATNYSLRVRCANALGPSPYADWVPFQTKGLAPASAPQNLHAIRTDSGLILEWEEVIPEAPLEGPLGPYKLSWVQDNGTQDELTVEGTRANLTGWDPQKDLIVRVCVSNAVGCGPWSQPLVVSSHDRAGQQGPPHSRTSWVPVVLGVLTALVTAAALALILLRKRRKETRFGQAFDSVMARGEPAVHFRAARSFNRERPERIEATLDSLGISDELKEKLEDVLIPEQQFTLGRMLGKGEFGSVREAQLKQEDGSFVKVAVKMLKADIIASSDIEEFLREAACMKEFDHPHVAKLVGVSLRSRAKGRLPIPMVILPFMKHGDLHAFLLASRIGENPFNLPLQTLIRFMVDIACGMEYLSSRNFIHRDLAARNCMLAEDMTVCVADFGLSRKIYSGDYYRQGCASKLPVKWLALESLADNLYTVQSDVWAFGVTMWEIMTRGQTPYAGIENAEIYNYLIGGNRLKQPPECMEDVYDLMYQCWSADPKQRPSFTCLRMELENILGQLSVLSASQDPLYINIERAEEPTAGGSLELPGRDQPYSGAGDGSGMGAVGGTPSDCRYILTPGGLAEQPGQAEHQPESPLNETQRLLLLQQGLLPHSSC

[6] = target: panel of 255 wild-type kinases (Homo sapiens, UniProt P06493); details: cited from earlier work
[7] = target: panel of 255 wild-type kinases (Homo sapiens, UniProt P07948); details: cited from earlier work
[8] = target: panel of 255 wild-type kinases (Homo sapiens, UniProt Q16654); details: cited from earlier work
[9] = target: T3, panel of 255 wild-type kinases (Homo sapiens, UniProt Q13188); details: cited from earlier work
T3 sequence (Q13188 1-491): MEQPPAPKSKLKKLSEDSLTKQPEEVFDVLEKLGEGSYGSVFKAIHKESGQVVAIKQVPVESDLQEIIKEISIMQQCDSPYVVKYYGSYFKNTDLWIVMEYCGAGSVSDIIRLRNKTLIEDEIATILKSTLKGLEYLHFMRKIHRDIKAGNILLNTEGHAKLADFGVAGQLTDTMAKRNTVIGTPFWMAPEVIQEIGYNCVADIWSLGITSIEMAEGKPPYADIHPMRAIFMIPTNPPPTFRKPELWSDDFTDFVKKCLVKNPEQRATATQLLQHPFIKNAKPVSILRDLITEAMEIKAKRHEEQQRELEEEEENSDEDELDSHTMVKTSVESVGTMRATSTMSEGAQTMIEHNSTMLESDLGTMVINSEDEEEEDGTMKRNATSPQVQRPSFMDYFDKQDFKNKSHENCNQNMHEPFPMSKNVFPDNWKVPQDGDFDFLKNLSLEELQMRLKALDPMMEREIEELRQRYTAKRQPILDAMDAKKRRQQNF

FGFR-altered cell lines = assay: Cell viability assay, FGFR-altered versus FGFR wild-type cell lines; type: cell-based; details: for IC50: read-out: average IC50 in the eight FGFR-altered cell lines; for higher potency in FGFR-altered compared to FGFR wild-type cell lines: on average
[10] = CHK1 kinase assay, 1 µmol/L single concentration, ref DOI: 10.1371/journal.pone.0092146
[11] = ABL kinase assay, 1 µmol/L single concentration, ref DOI: 10.1371/journal.pone.0092146
[12] = kinase CK2α1/β, 1 µmol/L single concentration, ref DOI: 10.1371/journal.pone.0092146
[13] = CaMK2γ kinase assay, 1 µmol/L single concentration, ref DOI: 10.1371/journal.pone.0092146
[14] = kinase TYRO3, 1 µmol/L single concentration, ref DOI: 10.1371/journal.pone.0092146
[15] = CDC2/CycB1 kinase assay, 1 µmol/L single concentration, ref DOI: 10.1371/journal.pone.0092146
[16] = kinase LYNa, 1 µmol/L single concentration, ref DOI: 10.1371/journal.pone.0092146
[17] = kinase PDHK4, 1 µmol/L single concentration, ref DOI: 10.1371/journal.pone.0092146
[18] = MST2, 1 µmol/L single concentration, ref DOI: 10.1371/journal.pone.0092146

CCCS(=O)(=O)Nc1ccc(F)c(C(=O)c2c[nH]c3ncc(-c4ccc(Cl)cc4)cc23)c1F [vemurafenib]
%-inhibition CHK1 [1, 10]: 4%
%-inhibition ABL [2, 11]: 15%
%-inhibition at 1 µmol/L, CK2α1/β [3, 12]: -5.39%
%-inhibition CaMK2γ [4, 13]: -10%
%-inhibition at 1 µmol/L, TYRO3 [5, 14]: 3.16%
%-inhibition CDC2/CycB1 [6, 15]: 10%
%-inhibition at 1 µmol/L, LYNa [7, 16]: 73%
%-inhibition at 1 µmol/L, PDHK4 [8, 17]: -1.4%
%-inhibition, MST2 [9, 18]: 24%

COc1cc(N2CCC(N3CCN(C)CC3)CC2)ccc1Nc1ncc(Cl)c(Nc2ccccc2P(C)(C)=O)n1 [brigatinib]
%-inhibition CHK1 [1]: 96%
%-inhibition ABL [2]: 54%
%-inhibition at 1 µmol/L, CK2α1/β [3]: 8.51%
%-inhibition CaMK2γ [4]: 96%
%-inhibition at 1 µmol/L, TYRO3 [5]: 27%
%-inhibition CDC2/CycB1 [6]: 61%
%-inhibition at 1 µmol/L, LYNa [7]: 51%
%-inhibition at 1 µmol/L, PDHK4 [8]: 5%
%-inhibition, MST2 [9]: 20%

CC(=O)Nc1cccc(-n2c(=O)n(C3CC3)c(=O)c3c(Nc4ccc(I)cc4F)n(C)c(=O)c(C)c32)c1 [trametinib]
%-inhibition CHK1 [1, 10]: -0.719%
%-inhibition ABL [2, 11]: -8%
%-inhibition at 1 µmol/L, CK2α1/β [3, 12]: -3.4%
%-inhibition CaMK2γ [4, 13]: 7%
%-inhibition at 1 µmol/L, TYRO3 [5, 14]: -2.65%
%-inhibition CDC2/CycB1 [6, 15]: 8%
%-inhibition at 1 µmol/L, LYNa [7, 16]: -1.74%
%-inhibition at 1 µmol/L, PDHK4 [8, 17]: -1.65%
%-inhibition, MST2 [9, 18]: -3%

CCN1CCN(c2ccc(Nc3cc(N(C)C(=O)Nc4c(Cl)c(OC)cc(OC)c4Cl)ncn3)cc2)CC1 [infigratinib]
potency in FGFR-altered cell lines compared to erdafitinib and pemigatinib (FGFR-altered cell lines; average IC50): more than three-fold lower potency
IC50 (FGFR-altered cell lines; geometric average): 20 nM
higher potency in FGFR-altered compared to FGFR wild-type cell lines (FGFR-altered cell lines; MANOVA): 130 fold

COc1ccc(CN2C3CC2CN(c2ccc(-c4cc(OCC(C)(C)O)cn5ncc(C#N)c45)cn2)C3)cn1 [selpercatinib]
activity in FGFR-altered versus wild-type cell lines (FGFR-altered cell lines; MANOVA): around ten times more active

CCN1C(=O)N(c2c(F)c(OC)cc(OC)c2F)Cc2cnc3[nH]c(CN4CCOCC4)cc3c21 [pemigatinib]
higher potency in FGFR-altered compared to FGFR wild-type cell lines (FGFR-altered cell lines; MANOVA): over 500 fold
IC50 (FGFR-altered cell lines): 4.3 nM

CO[C@@H]1[C@H](N(C)C(=O)c2ccccc2)C[C@H]2O[C@]1(C)n1c3ccccc3c3c4c(c5c6ccccc6n2c5c31)C(=O)NC4 [midostaurin]
%-inhibition CHK1 ([1]; CHK1 kinase assay, 1 µmol/L single concentration, ref DOI: 10.1158/1535-7163.MCT-18-0877): 68%
%-inhibition ABL ([2]; ABL kinase assay, 1 µmol/L single concentration, ref DOI: 10.1158/1535-7163.MCT-18-0877): 9%
%-inhibition at 1 µmol/L, CK2α1/β ([3]; kinase CK2α1/β, 1 µmol/L single concentration, ref DOI: 10.1158/1535-7163.MCT-18-0877): -5.6%
%-inhibition at 1 µmol/L, TYRO3 ([5]; kinase TYRO3, 1 µmol/L single concentration, ref DOI: 10.1158/1535-7163.MCT-18-0877): 31%
%-inhibition CDC2/CycB1 ([6]; CDC2/CycB1 kinase assay, 1 µmol/L single concentration, ref DOI: 10.1158/1535-7163.MCT-18-0877): 22%
%-inhibition at 1 µmol/L, LYNa ([7]; kinase LYNa, 1 µmol/L single concentration, ref DOI: 10.1158/1535-7163.MCT-18-0877): 90%
%-inhibition at 1 µmol/L, PDHK4 ([8]; kinase PDHK4, 1 µmol/L single concentration, ref DOI: 10.1158/1535-7163.MCT-18-0877): 1.09%
%-inhibition, MST2 ([9]; MST2, 1 µmol/L single concentration, ref DOI: 10.1158/1535-7163.MCT-18-0877): 98%

C[C@@H](Oc1cc(-c2cnn(C3CCNCC3)c2)cnc1N)c1c(Cl)ccc(F)c1Cl [crizotinib]
%-inhibition CHK1 [1, 10]: 10%
%-inhibition at 1 µmol/L, CK2α1/β [3, 12]: -6.39%
%-inhibition CaMK2γ [4, 13]: -10%
%-inhibition CDC2/CycB1 [6, 15]: 19%
%-inhibition at 1 µmol/L, LYNa [7, 16]: 42%
%-inhibition at 1 µmol/L, PDHK4 [8, 17]: -3.76%
%-inhibition, MST2 [9, 18]: 13%

Source: paper PMC9516332 (Frontiers in Oncology, 2022)
